Key:
Assay type in all cases: biochemical
AKT3 = AKT3 (Homo sapiens, UniProt Q9Y243); experiment: Kinase selectivity, Table 5: AKT3; details: read-out: selectivity data (inhibition), AKT3
AurA = AurA (Homo sapiens, UniProt O14965); experiment: Kinase selectivity, Table 5: AurA; details: read-out: selectivity data (inhibition), AurA
BMX = BMX (Homo sapiens, UniProt P51813); experiment: Kinase selectivity, Table 5: BMX; details: read-out: selectivity data (inhibition), BMX
CAMK4 = CAMK4 (Homo sapiens, UniProt Q16566); experiment: Kinase selectivity, Table 5: CAMK4; details: read-out: selectivity data (inhibition), CAMK4
Sequence of CAMK4 (Q16566 whole entry): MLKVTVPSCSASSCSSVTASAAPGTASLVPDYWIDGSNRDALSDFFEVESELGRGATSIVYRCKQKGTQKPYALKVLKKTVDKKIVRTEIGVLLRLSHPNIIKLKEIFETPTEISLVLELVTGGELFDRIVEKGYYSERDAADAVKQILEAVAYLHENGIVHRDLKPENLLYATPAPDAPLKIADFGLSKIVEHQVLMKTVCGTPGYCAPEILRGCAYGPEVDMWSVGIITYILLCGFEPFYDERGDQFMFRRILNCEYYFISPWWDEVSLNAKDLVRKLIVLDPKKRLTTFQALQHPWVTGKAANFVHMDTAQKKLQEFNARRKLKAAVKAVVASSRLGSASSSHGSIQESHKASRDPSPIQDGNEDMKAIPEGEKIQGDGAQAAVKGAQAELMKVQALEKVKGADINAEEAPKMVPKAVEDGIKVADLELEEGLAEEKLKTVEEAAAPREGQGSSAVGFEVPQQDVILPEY

CHK2 = CHK2 (Homo sapiens, UniProt O96017); experiment: Kinase selectivity, Table 5: CHK2; details: read-out: selectivity data (inhibition), CHK2
Sequence of CHK2 (O96017 whole entry, species assumed): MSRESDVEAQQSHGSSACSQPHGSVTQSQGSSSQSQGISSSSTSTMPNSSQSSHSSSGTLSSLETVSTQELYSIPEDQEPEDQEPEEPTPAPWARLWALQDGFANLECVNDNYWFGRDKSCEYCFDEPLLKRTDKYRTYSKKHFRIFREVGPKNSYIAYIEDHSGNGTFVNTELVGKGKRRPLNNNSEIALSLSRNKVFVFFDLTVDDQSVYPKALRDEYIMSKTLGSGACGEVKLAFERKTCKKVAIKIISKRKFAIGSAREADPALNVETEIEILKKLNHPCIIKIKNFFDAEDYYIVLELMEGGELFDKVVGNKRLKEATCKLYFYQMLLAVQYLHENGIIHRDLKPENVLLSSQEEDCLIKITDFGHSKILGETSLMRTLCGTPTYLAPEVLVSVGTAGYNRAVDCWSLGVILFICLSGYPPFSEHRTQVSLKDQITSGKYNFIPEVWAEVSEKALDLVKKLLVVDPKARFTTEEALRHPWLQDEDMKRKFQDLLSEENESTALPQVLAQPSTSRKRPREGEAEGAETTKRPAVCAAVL

c-Raf = c-Raf (Homo sapiens, UniProt P04049); experiment: Kinase selectivity, Table 5: c-Raf; details: read-out: selectivity data (inhibition), c-Raf
DYRK1α = DYRK1α (Homo sapiens, UniProt Q13627); experiment: Kinase selectivity, Table 5: DYRK1α; details: read-out: selectivity data (inhibition), DYRK1α
Erk1 = Erk1 (Homo sapiens, UniProt P27361); experiment: Kinase selectivity, Table 5: Erk1; details: read-out: selectivity data (inhibition), Erk1
Erk2 = Erk2 (Homo sapiens, UniProt P28482); experiment: Kinase selectivity, Table 5: Erk2; details: read-out: selectivity data (inhibition), Erk2
GSK3β = GSK3β (Homo sapiens, UniProt P49841); experiment: Kinase selectivity, Table 5: GSK3β; details: read-out: selectivity data (inhibition), GSK3β
Sequence of GSK3β (P49841 whole entry, species assumed): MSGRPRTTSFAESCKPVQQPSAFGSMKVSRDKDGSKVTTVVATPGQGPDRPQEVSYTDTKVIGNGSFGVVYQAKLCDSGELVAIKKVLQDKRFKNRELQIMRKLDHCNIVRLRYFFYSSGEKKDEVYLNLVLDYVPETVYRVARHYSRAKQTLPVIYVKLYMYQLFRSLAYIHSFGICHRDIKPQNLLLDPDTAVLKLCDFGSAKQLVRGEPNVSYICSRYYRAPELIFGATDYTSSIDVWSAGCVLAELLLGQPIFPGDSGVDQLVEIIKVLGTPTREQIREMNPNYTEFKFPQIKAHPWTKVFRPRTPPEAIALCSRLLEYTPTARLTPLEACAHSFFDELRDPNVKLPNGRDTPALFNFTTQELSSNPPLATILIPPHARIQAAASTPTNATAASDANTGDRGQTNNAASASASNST

HGK = HGK (Homo sapiens, UniProt O95819); experiment: Kinase selectivity, Table 5: HGK; details: read-out: selectivity data (inhibition), HGK
IGF1R = IGF1R (Homo sapiens, UniProt P08069); experiment: Kinase selectivity, Table 5: IGF1R; details: read-out: selectivity data (inhibition), IGF1R
Ikkβ = Ikkβ (Homo sapiens, UniProt O14920); experiment: Kinase selectivity, Table 5: Ikkβ; details: read-out: selectivity data (inhibition), Ikkβ
IRAK4 = IRAK4 (Homo sapiens, UniProt Q9NWZ3); experiment: Kinase selectivity, Table 5: IRAK4; details: read-out: selectivity data (inhibition), IRAK4
JAK2 = JAK2 (Homo sapiens, UniProt O60674); experiment: Kinase selectivity, Table 5: JAK2; details: read-out: selectivity data (inhibition), JAK2
Sequence of JAK2 (O60674 whole entry, species assumed): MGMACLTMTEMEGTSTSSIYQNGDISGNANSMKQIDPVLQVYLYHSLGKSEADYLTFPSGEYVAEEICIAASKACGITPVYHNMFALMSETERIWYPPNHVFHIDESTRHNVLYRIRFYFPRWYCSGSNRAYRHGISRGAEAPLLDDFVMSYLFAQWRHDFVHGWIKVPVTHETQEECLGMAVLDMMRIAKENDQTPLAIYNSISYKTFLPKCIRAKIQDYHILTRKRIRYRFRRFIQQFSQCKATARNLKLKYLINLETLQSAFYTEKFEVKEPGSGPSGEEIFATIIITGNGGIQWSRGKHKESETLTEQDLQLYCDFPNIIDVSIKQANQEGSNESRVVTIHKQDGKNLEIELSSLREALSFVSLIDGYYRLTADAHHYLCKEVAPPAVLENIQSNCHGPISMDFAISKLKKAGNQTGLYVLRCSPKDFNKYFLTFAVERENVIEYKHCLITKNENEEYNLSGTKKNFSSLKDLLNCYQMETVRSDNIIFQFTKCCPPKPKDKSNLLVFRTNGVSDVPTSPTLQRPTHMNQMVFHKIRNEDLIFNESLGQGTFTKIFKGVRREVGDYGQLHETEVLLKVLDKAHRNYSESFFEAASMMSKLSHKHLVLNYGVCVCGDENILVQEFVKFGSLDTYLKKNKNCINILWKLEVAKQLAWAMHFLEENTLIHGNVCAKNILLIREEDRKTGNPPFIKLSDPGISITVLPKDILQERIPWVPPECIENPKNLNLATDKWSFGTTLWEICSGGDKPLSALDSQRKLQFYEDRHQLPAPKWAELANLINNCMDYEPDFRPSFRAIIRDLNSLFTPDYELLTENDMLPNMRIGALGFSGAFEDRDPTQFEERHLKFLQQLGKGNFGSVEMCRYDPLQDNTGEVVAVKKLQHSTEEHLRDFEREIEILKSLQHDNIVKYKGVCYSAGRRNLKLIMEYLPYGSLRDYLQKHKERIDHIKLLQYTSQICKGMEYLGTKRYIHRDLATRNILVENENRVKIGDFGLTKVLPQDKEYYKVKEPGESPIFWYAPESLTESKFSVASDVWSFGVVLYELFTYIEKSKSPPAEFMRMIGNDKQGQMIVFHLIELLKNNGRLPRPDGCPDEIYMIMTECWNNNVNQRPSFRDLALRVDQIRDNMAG

p38α = p38α (Homo sapiens, UniProt Q16539); experiment: Kinase selectivity, Table 5: p38α; details: read-out: selectivity data (inhibition), p38α
p70S6K = p70S6K (Homo sapiens, UniProt P23443); experiment: Kinase selectivity, Table 5: p70S6K; details: read-out: selectivity data (inhibition), p70S6K
Sequence of p70S6K (P23443 whole entry): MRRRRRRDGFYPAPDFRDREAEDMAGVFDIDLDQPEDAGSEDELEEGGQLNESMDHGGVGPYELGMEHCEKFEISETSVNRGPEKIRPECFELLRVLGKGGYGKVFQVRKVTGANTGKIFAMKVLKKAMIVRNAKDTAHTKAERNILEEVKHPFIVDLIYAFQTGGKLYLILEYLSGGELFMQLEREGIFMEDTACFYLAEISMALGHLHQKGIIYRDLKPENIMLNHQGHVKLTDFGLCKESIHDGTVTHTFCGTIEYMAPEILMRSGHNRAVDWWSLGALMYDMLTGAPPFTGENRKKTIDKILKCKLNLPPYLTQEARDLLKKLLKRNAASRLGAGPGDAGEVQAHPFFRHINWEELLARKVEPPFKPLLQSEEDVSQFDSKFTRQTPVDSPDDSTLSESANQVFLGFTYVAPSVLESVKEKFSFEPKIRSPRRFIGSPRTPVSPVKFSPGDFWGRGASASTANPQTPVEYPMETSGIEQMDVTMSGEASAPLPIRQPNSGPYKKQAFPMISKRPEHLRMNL

PAK2 = PAK2 (Homo sapiens, UniProt Q13177); experiment: Kinase selectivity, Table 5: PAK2; details: read-out: selectivity data (inhibition), PAK2
PIM2 = PIM2 (Homo sapiens, UniProt Q9P1W9); experiment: Kinase selectivity, Table 5: PIM2; details: read-out: selectivity data (inhibition), PIM2
Sequence of PIM2 (Q9P1W9 whole entry): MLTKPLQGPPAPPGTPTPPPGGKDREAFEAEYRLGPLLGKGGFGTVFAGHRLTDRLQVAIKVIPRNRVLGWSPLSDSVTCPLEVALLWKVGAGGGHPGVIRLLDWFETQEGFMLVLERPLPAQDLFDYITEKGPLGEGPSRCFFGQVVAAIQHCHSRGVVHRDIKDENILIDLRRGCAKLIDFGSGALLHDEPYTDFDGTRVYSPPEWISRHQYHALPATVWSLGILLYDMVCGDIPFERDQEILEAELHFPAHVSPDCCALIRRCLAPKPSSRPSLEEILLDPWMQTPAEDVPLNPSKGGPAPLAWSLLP

PKCβ2 = PKCβ2 (Homo sapiens, UniProt P05771); experiment: Kinase selectivity, Table 5: PKCβ2; details: read-out: selectivity data (inhibition), PKCβ2
Sequence of PKCβ2 (P05771 1-673 isoform P05771-2): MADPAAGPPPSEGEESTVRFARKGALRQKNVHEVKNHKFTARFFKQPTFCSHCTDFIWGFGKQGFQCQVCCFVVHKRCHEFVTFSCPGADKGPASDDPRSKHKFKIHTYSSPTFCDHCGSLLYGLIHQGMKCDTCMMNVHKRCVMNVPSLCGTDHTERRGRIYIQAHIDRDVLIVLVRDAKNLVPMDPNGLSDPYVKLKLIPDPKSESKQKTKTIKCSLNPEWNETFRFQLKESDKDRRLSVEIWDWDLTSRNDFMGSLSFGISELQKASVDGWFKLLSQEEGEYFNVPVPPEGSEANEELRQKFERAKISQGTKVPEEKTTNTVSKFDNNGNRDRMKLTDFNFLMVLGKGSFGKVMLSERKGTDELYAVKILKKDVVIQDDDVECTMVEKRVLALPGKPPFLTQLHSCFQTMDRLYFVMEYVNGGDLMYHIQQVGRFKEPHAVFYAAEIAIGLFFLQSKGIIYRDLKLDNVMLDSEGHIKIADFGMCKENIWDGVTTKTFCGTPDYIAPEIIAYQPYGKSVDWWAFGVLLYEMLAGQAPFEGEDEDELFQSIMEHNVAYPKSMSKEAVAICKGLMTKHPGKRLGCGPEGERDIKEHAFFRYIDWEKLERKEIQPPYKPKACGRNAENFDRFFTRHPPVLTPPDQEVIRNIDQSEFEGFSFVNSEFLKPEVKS

PKCζ = PKCζ (Homo sapiens, UniProt Q05513); experiment: Kinase selectivity, Table 5: PKCζ; details: read-out: selectivity data (inhibition), PKCζ
SGK1 = SGK1 (Homo sapiens, UniProt O00141); experiment: Kinase selectivity, Table 5: SGK1; details: read-out: selectivity data (inhibition), SGK1
SRC = SRC (Homo sapiens, UniProt P12931); experiment: Kinase selectivity, Table 5: SRC; details: read-out: selectivity data (inhibition), SRC

Sequence of AKT3 (Q9Y243 whole entry, species assumed): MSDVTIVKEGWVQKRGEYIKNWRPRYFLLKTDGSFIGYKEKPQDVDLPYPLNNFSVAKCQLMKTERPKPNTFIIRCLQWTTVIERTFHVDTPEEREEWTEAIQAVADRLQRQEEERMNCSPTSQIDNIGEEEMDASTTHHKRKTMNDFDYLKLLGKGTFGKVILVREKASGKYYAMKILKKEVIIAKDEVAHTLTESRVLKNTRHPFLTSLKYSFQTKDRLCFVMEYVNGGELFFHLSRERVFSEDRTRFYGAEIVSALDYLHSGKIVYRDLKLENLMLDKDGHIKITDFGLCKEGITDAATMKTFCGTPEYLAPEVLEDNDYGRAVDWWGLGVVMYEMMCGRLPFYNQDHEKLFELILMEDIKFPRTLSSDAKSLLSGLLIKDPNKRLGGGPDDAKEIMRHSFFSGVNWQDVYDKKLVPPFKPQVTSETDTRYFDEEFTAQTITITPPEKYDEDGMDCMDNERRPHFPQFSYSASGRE
Sequence of AurA (O14965 whole entry, species assumed): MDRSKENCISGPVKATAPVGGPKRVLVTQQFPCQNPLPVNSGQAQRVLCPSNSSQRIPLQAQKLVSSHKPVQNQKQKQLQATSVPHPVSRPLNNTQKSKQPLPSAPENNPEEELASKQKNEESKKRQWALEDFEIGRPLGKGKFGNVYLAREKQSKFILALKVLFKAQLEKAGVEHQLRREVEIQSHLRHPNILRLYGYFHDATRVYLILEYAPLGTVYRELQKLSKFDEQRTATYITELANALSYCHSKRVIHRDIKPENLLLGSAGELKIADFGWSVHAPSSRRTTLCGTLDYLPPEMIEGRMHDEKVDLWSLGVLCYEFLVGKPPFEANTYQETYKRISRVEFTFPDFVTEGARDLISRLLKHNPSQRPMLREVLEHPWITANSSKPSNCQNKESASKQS

Q: For `CC(C)c1ccc(C=C2SC(=O)NC2=O)cc1` [5-(4-iso-propylbenzylidene)thiazolidine-2,4-dione], which inhibition at 5 µM (AKT3) is on record?
A: 3%

Q: What about the inhibition at 5 µM (AurA) of the same molecule?
A: 4%

Q: And the inhibition at 5 µM (BMX)?
A: 10%

Q: What about the inhibition at 5 µM (CAMK4) of the same molecule?
A: -8%

Q: What about the inhibition at 5 µM (CHK2) of the same molecule?
A: 4%

Q: What about the inhibition at 5 µM (c-Raf) of the same molecule?
A: -1%

Q: What about the inhibition at 5 µM (DYRK1α) of the same molecule?
A: 68%

Q: What about the inhibition at 5 µM (Erk1) of the same molecule?
A: 1%

Q: What about the inhibition at 5 µM (Erk2) of the same molecule?
A: -1%

Q: What about the inhibition at 5 µM (GSK3β) of the same molecule?
A: 3%

Q: What about the inhibition at 5 µM (HGK) of the same molecule?
A: 9%

Q: And the inhibition at 5 µM (IGF1R)?
A: -1%

Q: What about the inhibition at 5 µM (Ikkβ) of the same molecule?
A: 10%

Q: What about the inhibition at 5 µM (IRAK4) of the same molecule?
A: 5%

Q: And the inhibition at 5 µM (JAK2)?
A: 18%

Q: What about the inhibition at 5 µM (p38α) of the same molecule?
A: 0%

Q: And the inhibition at 5 µM (p70S6K)?
A: 8%

Q: And the inhibition at 5 µM (PAK2)?
A: -1%

Q: What about the inhibition at 5 µM (PIM2) of the same molecule?
A: 62%

Q: And the inhibition at 5 µM (PKCβ2)?
A: -1%

Q: What about the inhibition at 5 µM (PKCζ) of the same molecule?
A: 3%

Q: And the inhibition at 5 µM (SGK1)?
A: 5%

Q: And the inhibition at 5 µM (SRC)?
A: 4%
